Test systems include Vibrio alginolyticus; Vibrio vulnificus 204; Acinetobacter junii RT-4; Bacillus megaterium Bm11; Escherichia coli D21; Saccharomyces cerevisiae; Staphylococcus capitis 1; Pseudomonas aeruginosa; Staphylococcus aureus; Streptococcus agalactiae; Bacillus anthracis; Bacillus cereus; Escherichia coli; Bacillus subtilis 168; Candida albicans CA14; Escherichia coli K-12.
Holding throughout (assay): ≥ marks a high value that may be exact or a test limit, other limits are often not marked, values filed in µg/mL are converted to µM
Assay [1] relates to Aeromonas hydrophila BCRC 13018.
Assay [2] deals with Enterococcus faecalis BCRC 10066.
Assay [3] concerns Pseudomonas aeruginosa ATCC 19660.
For assay [4], the system named is Streptococcus agalactiae 819.
The subject of assay [5] is Streptococcus agalactiae BCRC 10787.
In assay [6] the test system is Acinetobacter baumannii ATCC 19606.
In assay [7] the test system is Candida albicans ATCC 10231.
For assay [8], the system named is Enterococcus faecalis ATCC 29212.
Assay [9] deals with Escherichia coli ATCC 25922.
Assay [10] concerns Pseudomonas aeruginosa ATCC 15692.
Assay [11] deals with Pseudomonas aeruginosa ATCC 27853.
Assay [12] has as its system Pseudomonas syringae pv. tabaci 1918NCPPB.
Assay [13] relates to Schizosaccharomyces pombe.
For assay [14], the system named is Staphylococcus aureus ATCC 25923.
For assay [15], the system named is Staphylococcus aureus Cowan 1.
Assay [16] concerns Staphylococcus epidermidis ATCC 12228.
In assay [17] the test system is Streptococcus pyogenes ATCC 21547.
Assay [18] relates to Yersinia pseudotuberculosis YPIII.
In assay [19] the test system is Micrococcus luteus BCRC 11034.
Assay [20] has as its system Staphylococcus aureus BCRC 10780.
In assay [21] the test system is Staphylococcus sp. BCRC 10451.
Assay [22] concerns Streptococcus pneumoniae BCRC 10794.
The subject of assay [23] is Vibrio harveyi BCRC 13812.
Assay [24] concerns Bacillus subtilis KCTC 3068.
In assay [25] the test system is Escherichia coli KCTC 1682.
For assay [26], the system named is Malassezia sympodialis ATCC 42132.
Assay [27] relates to Pseudomonas aeruginosa KCTC 1637.
The test system of assay [28] is Saccharomyces cerevisiae BY4741.
Assay [29] has as its system Salmonella typhimurium KCTC 1926.
The subject of assay [30] is Staphylococcus aureus KCTC 1621.
Assay [31] concerns Staphylococcus aureus RN4220.
Assay [32] deals with Staphylococcus epidermidis KCTC 1917.

Values after ≈ are worked out from the molar mass of the structure shown.

For `CC[C@H](C)[C@H](NC(=O)[C@H](C)NC(=O)[C@H](CCCN=C(N)N)NC(=O)[C@H](Cc1cnc[nH]1)NC(=O)[C@@H](NC(=O)[C@H](C)NC(=O)[C@H](CCCN=C(N)N)NC(=O)[C@@H](NC(=O)CNC(=O)[C@H](Cc1cnc[nH]1)NC(=O)[C@H](CO)NC(=O)[C@@H](NC(=O)[C@H](Cc1c[nH]c2ccccc12)NC(=O)CNC(=O)[C@@H](NC(=O)[C@@H](NC(=O)[C@H](Cc1cnc[nH]1)NC(=O)[C@H](Cc1cnc[nH]1)NC(=O)[C@@H](NC(=O)[C@@H](N)Cc1ccccc1)[C@@H](C)CC)[C@@H](C)CC)[C@@H](C)CC)[C@@H](C)CC)C(C)C)[C@@H](C)CC)C(=O)N[C@@H](Cc1cnc[nH]1)C(=O)NCC(N)=O` [FIHHIIGWISHGVRAIHRAIHG], the MIC in assay [1] stood at 7.82 µM (≈ 19.8 µg/mL); in [2], 3.91 µM (≈ 9.89 µg/mL); in assay [3], 7.82 µM (≈ 19.8 µg/mL); in [4], 3.91 µM (≈ 9.89 µg/mL); in assay [5], 0.123 µM (≈ 0.31 µg/mL); against Vibrio alginolyticus, 0.49 µM (≈ 1.24 µg/mL). Moreover, in the assay with Vibrio vulnificus 204, the MIC worked out at 0.245 µM (≈ 0.62 µg/mL).

As for `CC[C@H](C)[C@H](NC(=O)[C@H](CCCN=C(N)N)NC(=O)CNC(=O)[C@H](CC(C)C)NC(=O)[C@H](Cc1ccccc1)NC(=O)[C@H](CCCCN)NC(=O)[C@H](CO)NC(=O)[C@H](Cc1ccccc1)NC(=O)[C@H](Cc1c[nH]c2ccccc12)NC(=O)[C@@H]1CCCN1C(=O)[C@@H](NC(=O)[C@@H](N)Cc1ccccc1)C(C)C)C(=O)N[C@@H](CC(C)C)C(N)=O` [FVPWFSKFLGRIL], the MIC in assay [6] is 6 µM (≈ 9.65 µg/mL); with Acinetobacter junii RT-4, 6 µM (≈ 9.65 µg/mL); in the assay on Bacillus megaterium Bm11 it was 1.5 µM (≈ 2.41 µg/mL); in [7] it was 6 µM (≈ 9.65 µg/mL); in [8] it was 6 µM (≈ 9.65 µg/mL); in assay [9] it was 24 µM (≈ 38.6 µg/mL). In addition, the minimum inhibitory concentration (MIC) is 12 µM (≈ 19.3 µg/mL) in the assay with Escherichia coli D21; 24 µM (≈ 38.6 µg/mL) in [10]; > 48 µM in assay [11]; 6 µM (≈ 9.65 µg/mL) in assay [12]; 6 µM (≈ 9.65 µg/mL) against Saccharomyces cerevisiae; 3 µM (≈ 4.83 µg/mL) in assay [13]. Besides, the minimal inhibitory concentration (MIC) in [14] was 3 µM (≈ 4.83 µg/mL); in assay [15], 1.5 µM (≈ 2.41 µg/mL); against Staphylococcus capitis 1, 1.5 µM (≈ 2.41 µg/mL); in assay [16], 1.5 µM (≈ 2.41 µg/mL); in [17] it was 6 µM (≈ 9.65 µg/mL); in assay [18], 3 µM (≈ 4.83 µg/mL).

Consider `CC[C@H](C)[C@H](NC(=O)[C@H](CCSC)NC(=O)[C@H](CCCCN)NC(=O)CNC(=O)[C@H](C)NC(=O)[C@H](Cc1cnc[nH]1)NC(=O)[C@H](Cc1ccccc1)NC(=O)[C@H](CC(C)C)NC(=O)CNC(=O)[C@H](CCCCN)NC(=O)[C@@H](NC(=O)[C@@H](NC(=O)[C@H](Cc1cnc[nH]1)NC(=O)[C@H](Cc1ccccc1)NC(=O)[C@@H](NC(=O)[C@H](Cc1ccccc1)NC(=O)CNC(C)=O)[C@@H](C)CC)[C@@H](C)CC)[C@@H](C)CC)C(=O)N[C@@H](Cc1cnc[nH]1)C(=O)NCC(=O)N[C@@H](CC(C)C)C(=O)N[C@H](C(N)=O)C(C)C` [GFIFHIIKGLFHAGKMIHGLV], for which the minimal inhibitory concentration (MIC) in [19] is 2.68 µM (≈ 6.36 µg/mL); in the assay on Pseudomonas aeruginosa it was 5.35 µM (≈ 12.7 µg/mL); in assay [20], 21.4 µM (≈ 50.9 µg/mL); in the assay on Staphylococcus aureus, 5.35 µM (≈ 12.7 µg/mL); in assay [21] it was 2.68 µM (≈ 6.36 µg/mL); against Streptococcus agalactiae, ≥ 42.8 µM. Moreover, the minimal inhibitory concentration (MIC) in assay [22] stood at 21.4 µM (≈ 50.9 µg/mL); in the assay on Vibrio alginolyticus, 2.68 µM (≈ 6.36 µg/mL); in [23], 2.68 µM (≈ 6.36 µg/mL); with Vibrio vulnificus 204 it was 21.4 µM (≈ 50.9 µg/mL).

In the case of `CC(C)C[C@H](NC(=O)[C@H](Cc1ccccc1)NC(=O)[C@@H]1CCCN1C(=O)[C@H](Cc1ccccc1)NC(=O)[C@@H](NC(=O)[C@H](Cc1ccccc1)NC(=O)[C@H](CC(C)C)NC(=O)[C@@H](NC(=O)[C@H](CCCCN)NC(=O)[C@@H](NC(=O)[C@H](CCCCN)NC(=O)[C@H](CCCCN)NC(=O)[C@H](C)NC(=O)CNC(=O)[C@H](C)NC(=O)[C@@H](NC(=O)[C@H](CO)NC(=O)[C@@H](NC(=O)CN)C(C)C)C(C)C)C(C)C)C(C)C)C(C)C)C(=O)N[C@@H](Cc1ccccc1)C(=O)O` [GVSVAGAKKVKVLFVFPFLF], the minimum inhibitory concentration (MIC) is ≥ 119 µM in the assay on Bacillus anthracis, ≥ 119 µM against Bacillus cereus, > 119 µM in the assay with Escherichia coli and > 119 µM in the assay on Staphylococcus aureus.

In the case of `CC[C@H](C)[C@H](NC(=O)[C@H](CCCN=C(N)N)NC(=O)[C@H](CCCN=C(N)N)NC(=O)[C@H](CCCN=C(N)N)NC(=O)[C@H](CC(C)C)NC(=O)[C@@H](NC(=O)[C@@H](NC(=O)[C@H](CC(C)C)NC(=O)[C@@H](N)CC(C)C)[C@@H](C)CC)[C@@H](C)CC)C(=O)N[C@@H](CCCN=C(N)N)C(=O)N[C@@H](CCCCN)C(=O)N[C@@H](CCC(N)=O)C(=O)N[C@@H](C)C(=O)N[C@@H](Cc1cnc[nH]1)C(=O)N[C@@H](C)C(=O)N[C@@H](Cc1cnc[nH]1)C(=O)N[C@@H](CO)C(=O)N[C@@H](CCCCN)C(N)=O` [LLIILRRRIRKQAHAHSK], the MIC amounted to 10 µM (≈ 22.1 µg/mL) with Bacillus subtilis 168; 4 µM (≈ 8.83 µg/mL) in [24]; 10 µM (≈ 22.1 µg/mL) against Candida albicans CA14; 10 µM (≈ 22.1 µg/mL) in the assay on Escherichia coli K-12; 16 µM (≈ 35.3 µg/mL) in [25]; 4.98 µM (≈ 11 µg/mL) in assay [26]. Besides, the MIC in [27] amounted to 8 µM (≈ 17.7 µg/mL); in [28], 10 µM (≈ 22.1 µg/mL); in [29], 4 µM (≈ 8.83 µg/mL); in assay [30], 4 µM (≈ 8.83 µg/mL); in assay [31], 10 µM (≈ 22.1 µg/mL); in [32] it was 8 µM (≈ 17.7 µg/mL).

As a reminder, the MIC is the least concentration at which growth counts as inhibited. Low values mean a more susceptible organism, high ones a less susceptible organism.

For the origin of these results see DBAASP.
